Test results: patent US20240408169A1 (priority 2023, published 2024)
Where two headings read alike, the source gives them in different places. *1 amine or outer side, *2 acyl side, *3 side chain or, on linkers, in order; H or OH if unused. Where a SMILES comes first, the peptide text is derived from it. Bridges are numbered along the chain shown (N, C = ends). [ ]: non-standard residue; d: D form. The star is where a group is joined. NMePhe(2-(4-MorPh),5-Cl) = CN[C@@H](Cc1cc(Cl)ccc1-c1ccc(N2CCOCC2)cc1)C(=O)O; X179 = CN([C@@H](Cc1cc(Cl)ccc1-c1ccc(N2CCOCC2)c(C#N)c1)C(=O)[*:2])[*:1]; X127 = CN([C@@H](Cc1cc(F)ccc1-c1cnn(S(=O)(=O)C2CC2)c1)C(=O)[*:2])[*:1]; X167 = CN([C@@H](Cc1cc(F)ccc1C1=CCN(S(C)(=O)=O)CC1)C(=O)[*:2])[*:1]; X197 = CN([C@@H](Cc1cc(Cl)ccc1-c1ccc(=O)[nH]c1)C(=O)[*:2])[*:1]; X166 = CN([C@@H](Cc1cc(F)ccc1C1=CC2COCC(C1)N2)C(=O)[*:2])[*:1]; X192 = COc1cccc(-c2ccc(Cl)cc2C[C@@H](C(=O)[*:2])N(C)[*:1])c1; NMehhhLys(Me) = CN([C@@H](CCCCCCCN(C)[*:3])C(=O)[*:2])[*:1]; X180 = CN([C@@H](Cc1cc(F)ccc1-c1cnn2c1CCC2)C(=O)[*:2])[*:1]; X159 = CN([C@@H](Cc1cc(Cl)cnc1Oc1cnn(C)c1)C(=O)[*:2])[*:1]; X44 = Cc1nnc(-c2ccc(Cl)cc2C[C@@H](C(=O)[*:2])N(C)[*:1])o1; NMe3Pal(2-OcPr,5-F) = CN[C@@H](Cc1cc(F)cnc1OC1CC1)C(=O)O; X154 = Cc1oncc1-c1ccc(Cl)cc1C[C@@H](C(=O)[*:2])N(C)[*:1]; X204 = CN([C@@H](Cc1cc(F)ccc1-c1ccnnc1)C(=O)[*:2])[*:1]; NMe(hhhLys) = CN([C@@H](CCCCCCCN[*:3])C(=O)[*:2])[*:1]; Oxane2carbonyl(2R-CF3) = O=C([C@@]1(C(F)(F)F)CCCCO1)*; X152 = CN([C@@H](Cc1cc(Cl)ccc1OC1CC1)C(=O)[*:2])[*:1]; Cyclobutanecarbonyl(1-CF3) = O=C(C1(C(F)(F)F)CCC1)*; cBuCO(3,3-F2-1-CF3) = O=C(C1(C(F)(F)F)CC(F)(F)C1)*; X161 = Cc1ccc(F)cc1C[C@@H](C(=O)[*:2])N(C)[*:1]; Pro(trans-4-F) = O=C(O)[C@@H]1C[C@@H](F)CN1; Gly(cPr) = N[C@H](C(=O)O)C1CC1

Assays:
CyclinA2/CDK2 = biological target: T1, CyclinA2/CDK2 (Homo sapiens, UniProt P20248); experiment: Fluorescence Polarization (FP) competitive binding assay, Cyclin A2/Cdk2;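 also: plates equilibrated two hours at room temperature before polarization reading, IC50 fitted from eight-concentration compound titration curves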
T1 construct: purchased CRELUX Protein Services

CyclinB1/CDK1 = biological target: T2, CyclinB1/CDK1 (Homo sapiens, UniProt P14635); experiment: Fluorescence Polarization (FP) competitive binding assay, Cyclin B1/Cdk1;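 also: fluorescence polarization read after equilibration at room temperature, with IC50 taken from serially diluted dose-response curves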
T2 construct: purchased Eurofins, discovery 14-450

CyclinE1/CDK2 = biological target: T3, CyclinE1/CDK2 (Homo sapiens, UniProt P24864); experiment: Fluorescence Polarization (FP) competitive binding assay, Cyclin E1/Cdk2;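 also: readings taken after two-hour equilibration at room temperature in HEPES buffer with NaCl, DTT, NP-40 and BSA, IC50 fitted from eight-concentration serial dilution series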
T3 construct: purchased Eurofins, discovery 14-475

NCI-H1048 cells = experiment: MTT proliferation assay, NCI-H1048; type: cell-based; details: 5 days compound exposure, 1:3 serial dilution starting at 10 μM;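 also: Dose-response in 96-well plates over 8 or 10 concentration points, with exposure spanning 3-4 cell doublings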
OVCAR3 cells = experiment: MTT proliferation assay, OVCAR3; type: cell-based; details: 5 days compound exposure, 1:3 serial dilution starting at 10 μM;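 also: compound given as an 8- or 10-point series, one day after plating, with exposure covering roughly 3-4 cell doublings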
[1] = 8 nM Cyclin A2/Cdk2, 2 nM FAM probe, average of 2-3 independent experiments, read-out: Cyclin A FP IC50
[2] = 10 nM Cyclin B1/Cdk1, 2 nM FAM probe; average of 2-3 independent experiments; read-out: Cyclin B FP IC50
[3] = 10 nM Cyclin E1/Cdk2, 2 nM FAM probe, average of 2-3 independent experiments, read-out: Cyclin E FP IC50
[4] = read-out: Cyclin B FP IC50; 10 nM Cyclin B1/Cdk1, 2 nM FAM probe; average of 2-3 independent experiments

Structure (SMILES)	IC50 (CyclinA2/CDK2; [1])	IC50 (CyclinB1/CDK1; [2])	IC50 (CyclinE1/CDK2; [3])	GI50 (NCI-H1048 cells)	GI50 (OVCAR3 cells)	IC50 (CyclinA2/CDK2)	IC50 (CyclinB1/CDK1; [4])	IC50 (CyclinE1/CDK2)
CC(C)C[C@@H]1NC(=O)[C@@H](N(C)C(=O)[C@@H](NC(=O)[C@@H]2C[C@@H](F)CN2C(=O)C2(C(F)(F)F)CC(F)(F)C2)C2CC2)CCCCCCCN(C)C(=O)[C@H](Cc2cc(Cl)ccc2-c2ccc(=O)[nH]c2)N(C)C1=O [Example 180] ({cBuCO(3,3-F2-1-CF3)}-[Pro(trans-4-F)][Gly(cPr)][NMehhhLys(Me)]L[X197]; lactam 3-C)	30 nM	20 nM	1860 nM	730 nM	1220 nM	–	–	–
CC(C)C[C@@H]1NC(=O)[C@@H](N(C)C(=O)[C@@H](NC(=O)[C@@H]2C[C@@H](F)CN2C(=O)C2(C(F)(F)F)CC(F)(F)C2)C2CC2)CCCCCCCNC(=O)[C@H](Cc2cc(F)ccc2-c2cnn3c2CCC3)N(C)C1=O [Example 214] ({cBuCO(3,3-F2-1-CF3)}-[Pro(trans-4-F)][Gly(cPr)][NMe(hhhLys)]L[X180]; lactam 3-C)	–	–	–	10 nM	10 nM	50 nM	20 nM	500 nM
Cc1nnc(-c2ccc(Cl)cc2C[C@H]2C(=O)N(C)CCCCCCC[C@H](N(C)C(=O)[C@@H](NC(=O)[C@@H]3C[C@@H](F)CN3C(=O)C3(C(F)(F)F)CC(F)(F)C3)C3CC3)C(=O)N[C@@H](CC(C)C)C(=O)N2C)o1 [Example 162] ({cBuCO(3,3-F2-1-CF3)}-[Pro(trans-4-F)][Gly(cPr)][NMehhhLys(Me)]L[X44]; lactam 3-C)	20 nM	20 nM	220 nM	10 nM	10 nM	–	–	–
CC(C)C[C@@H]1NC(=O)[C@@H](N(C)C(=O)[C@@H](NC(=O)[C@@H]2C[C@@H](F)CN2C(=O)C2(C(F)(F)F)CC(F)(F)C2)C2CC2)CCCCCCCN(C)C(=O)[C@H](Cc2cc(Cl)cnc2Oc2cnn(C)c2)N(C)C1=O [Example 323] ({cBuCO(3,3-F2-1-CF3)}-[Pro(trans-4-F)][Gly(cPr)][NMehhhLys(Me)]L[X159]; lactam 3-C)	30 nM	20 nM	240 nM	10 nM	10 nM	–	–	–
CC(C)C[C@@H]1NC(=O)[C@@H](N(C)C(=O)[C@@H](NC(=O)[C@@H]2C[C@@H](F)CN2C(=O)C2(C(F)(F)F)CC2)C2CC2)CC=CCCCCNC(=O)[C@H](Cc2cc(Cl)ccc2Cl)N(C)C1=O (single isomer, unassigned) [Example 5-P1]	790 nM	20 nM	700 nM	390 nM	690 nM	–	–	–
CC(C)C[C@@H]1NC(=O)[C@@H](N(C)C(=O)[C@@H](NC(=O)[C@@H]2C[C@@H](F)CN2C(=O)C2(C(F)(F)F)CC(F)(F)C2)C2CC2)CCCCCCCNC(=O)[C@H](Cc2cc(F)ccc2-c2cnn(S(=O)(=O)C3CC3)c2)N(C)C1=O [Example 281] ({cBuCO(3,3-F2-1-CF3)}-[Pro(trans-4-F)][Gly(cPr)][NMe(hhhLys)]L[X127]; lactam 3-C)	40 nM	20 nM	530 nM	10 nM	20 nM	–	–	–
CC(C)C[C@@H]1NC(=O)[C@@H](N(C)C(=O)[C@@H](NC(=O)[C@@H]2C[C@@H](F)CN2C(=O)C2(C(F)(F)F)CC(F)(F)C2)C2CC2)CC=CCCCCN(C)C(=O)[C@H](Cc2cc(F)ccc2-c2cnn(C3CCOCC3)c2)N(C)C1=O [Example 84]	50 nM	20 nM	290 nM	20 nM	10 nM	–	–	–
CC(C)C[C@@H]1NC(=O)[C@@H](N(C)C(=O)[C@@H](NC(=O)[C@@H]2C[C@@H](F)CN2C(=O)C2(C(F)(F)F)CC2)C2CC2)CC=CCCCCNC(=O)[C@H](Cc2cc(Cl)ccc2Cl)N(C)C1=O (single isomer, unassigned) [Example 5-P2]	560 nM	20 nM	460 nM	290 nM	560 nM	–	–	–
CC(C)C[C@@H]1NC(=O)[C@@H](N(C)C(=O)[C@@H](NC(=O)[C@@H]2C[C@@H](F)CN2C(=O)[C@@]2(C(F)(F)F)CCCCO2)C2CC2)CCCCCCCN(C)C(=O)[C@H](Cc2cc(F)ccc2-c2cnn(S(=O)(=O)C3CC3)c2)N(C)C1=O [Example 282] ({Oxane2carbonyl(2R-CF3)}-[Pro(trans-4-F)][Gly(cPr)][NMehhhLys(Me)]L[X127]; lactam 3-C)	30 nM	20 nM	100 nM	10 nM	10 nM	–	–	–
Cc1ccc(F)cc1C[C@H]1C(=O)N(C)CCCCCCC[C@H](N(C)C(=O)[C@@H](NC(=O)[C@@H]2C[C@@H](F)CN2C(=O)C2(C(F)(F)F)CC(F)(F)C2)C2CC2)C(=O)N[C@@H](CC(C)C)C(=O)N1C [Example 123] ({cBuCO(3,3-F2-1-CF3)}-[Pro(trans-4-F)][Gly(cPr)][NMehhhLys(Me)]L[X161]; lactam 3-C)	30 nM	20 nM	120 nM	20 nM	20 nM	–	–	–
CC(C)C[C@@H]1NC(=O)[C@@H](N(C)C(=O)[C@@H](NC(=O)[C@@H]2C[C@@H](F)CN2C(=O)C2(C(F)(F)F)CC(F)(F)C2)C2CC2)CCCCCCCNC(=O)[C@H](Cc2cc(Cl)ccc2OC2CC2)N(C)C1=O [Example 311] ({cBuCO(3,3-F2-1-CF3)}-[Pro(trans-4-F)][Gly(cPr)][NMe(hhhLys)]L[X152]; lactam 3-C)	50 nM	20 nM	200 nM	20 nM	30 nM	–	–	–
CC(C)C[C@@H]1NC(=O)[C@@H](N(C)C(=O)[C@@H](NC(=O)[C@@H]2C[C@@H](F)CN2C(=O)C2(C(F)(F)F)CC(F)(F)C2)C2CC2)CCCCCCCN(C)C(=O)[C@H](Cc2cc(F)ccc2C2=CC3COCC(C2)N3)N(C)C1=O (stereo partly drawn) [Example 166] ({cBuCO(3,3-F2-1-CF3)}-[Pro(trans-4-F)][Gly(cPr)][NMehhhLys(Me)]L[X166]; lactam 3-C)	60 nM	20 nM	2300 nM	40 nM	100 nM	–	–	–
CC(C)C[C@@H]1NC(=O)[C@@H](N(C)C(=O)[C@@H](NC(=O)[C@@H]2C[C@@H](F)CN2C(=O)C2(C(F)(F)F)CC(F)(F)C2)C2CC2)CCCCCCCN(C)C(=O)[C@H](Cc2cc(F)ccc2C2=CCN(S(C)(=O)=O)CC2)N(C)C1=O [Example 100] ({cBuCO(3,3-F2-1-CF3)}-[Pro(trans-4-F)][Gly(cPr)][NMehhhLys(Me)]L[X167]; lactam 3-C)	20 nM	20 nM	450 nM	20 nM	20 nM	–	–	–
Cc1oncc1-c1ccc(Cl)cc1C[C@H]1C(=O)N(C)CCCCCCC[C@H](N(C)C(=O)[C@@H](NC(=O)[C@@H]2C[C@@H](F)CN2C(=O)C2(C(F)(F)F)CC(F)(F)C2)C2CC2)C(=O)N[C@@H](CC(C)C)C(=O)N1C [Example 212] ({cBuCO(3,3-F2-1-CF3)}-[Pro(trans-4-F)][Gly(cPr)][NMehhhLys(Me)]L[X154]; lactam 3-C)	–	–	–	80 nM	80 nM	70 nM	20 nM	4160 nM
CC(C)C[C@@H]1NC(=O)[C@@H](N(C)C(=O)[C@@H](NC(=O)[C@@H]2C[C@@H](F)CN2C(=O)C2(C(F)(F)F)CCC2)C2CC2)CCCCCCCN(C)C(=O)[C@H](Cc2cc(F)cnc2OC2CC2)N(C)C1=O [Example 135] ({Cyclobutanecarbonyl(1-CF3)}-[Pro(trans-4-F)][Gly(cPr)][NMehhhLys(Me)]L[NMe3Pal(2-OcPr,5-F)]; lactam 3-C)	80 nM	20 nM	120 nM	30 nM	20 nM	–	–	–
CC(C)C[C@@H]1NC(=O)[C@@H](N(C)C(=O)[C@H](CCC(=O)O)NC(=O)[C@@H]2C[C@@H](F)CN2C(=O)C2(C(F)(F)F)CC(F)(F)C2)CCCCCCCN(C)C(=O)[C@H](Cc2cc(Cl)ccc2-c2ccc(N3CCOCC3)cc2)N(C)C1=O [Example 418] ({cBuCO(3,3-F2-1-CF3)}-[Pro(trans-4-F)]E[NMehhhLys(Me)]L[NMePhe(2-(4-MorPh),5-Cl)]; lactam 3-C)	120 nM	20 nM	5260 nM	1420 nM	1150 nM	–	–	–
COc1cccc(-c2ccc(Cl)cc2C[C@H]2C(=O)N(C)CCCCCCC[C@H](N(C)C(=O)[C@@H](NC(=O)[C@@H]3C[C@@H](F)CN3C(=O)C3(C(F)(F)F)CC(F)(F)C3)C3CC3)C(=O)N[C@@H](CC(C)C)C(=O)N2C)c1 [Example 197] ({cBuCO(3,3-F2-1-CF3)}-[Pro(trans-4-F)][Gly(cPr)][NMehhhLys(Me)]L[X192]; lactam 3-C)	20 nM	20 nM	310 nM	50 nM	100 nM	–	–	–
CC(C)C[C@@H]1NC(=O)[C@@H](N(C)C(=O)[C@@H](NC(=O)[C@@H]2C[C@@H](F)CN2C(=O)C2(C(F)(F)F)CC(F)(F)C2)C2CC2)CCCCCCCNC(=O)[C@H](Cc2cc(F)ccc2-c2ccnnc2)N(C)C1=O [Example 290] ({cBuCO(3,3-F2-1-CF3)}-[Pro(trans-4-F)][Gly(cPr)][NMe(hhhLys)]L[X204]; lactam 3-C)	120 nM	20 nM	1790 nM	80 nM	150 nM	–	–	–
CC(C)C[C@@H]1NC(=O)[C@@H](N(C)C(=O)[C@@H](NC(=O)[C@@H]2C[C@@H](F)CN2C(=O)C2(C(F)(F)F)CC(F)(F)C2)C2CC2)CCCCCCCN(C)C(=O)[C@H](Cc2cc(Cl)ccc2-c2ccc(N3CCOCC3)c(C#N)c2)N(C)C1=O [Example 379] ({cBuCO(3,3-F2-1-CF3)}-[Pro(trans-4-F)][Gly(cPr)][NMehhhLys(Me)]L[X179]; lactam 3-C)	30 nM	20 nM	2730 nM	30 nM	20 nM	–	–	–
